Data: patent US20070021434A1, “NON-NUCLEOSIDE ANTI-HEPACIVIRUS AGENTS AND USES THEREOF” (Migenix Inc., priority 2005, published 2007)

Target: HCV RdRp (NS5B) (UniProt P26663)
Format: biochemical, hepatitis C virus

HCV RdRp (NS5B), sequence (P26663 whole entry, looked up): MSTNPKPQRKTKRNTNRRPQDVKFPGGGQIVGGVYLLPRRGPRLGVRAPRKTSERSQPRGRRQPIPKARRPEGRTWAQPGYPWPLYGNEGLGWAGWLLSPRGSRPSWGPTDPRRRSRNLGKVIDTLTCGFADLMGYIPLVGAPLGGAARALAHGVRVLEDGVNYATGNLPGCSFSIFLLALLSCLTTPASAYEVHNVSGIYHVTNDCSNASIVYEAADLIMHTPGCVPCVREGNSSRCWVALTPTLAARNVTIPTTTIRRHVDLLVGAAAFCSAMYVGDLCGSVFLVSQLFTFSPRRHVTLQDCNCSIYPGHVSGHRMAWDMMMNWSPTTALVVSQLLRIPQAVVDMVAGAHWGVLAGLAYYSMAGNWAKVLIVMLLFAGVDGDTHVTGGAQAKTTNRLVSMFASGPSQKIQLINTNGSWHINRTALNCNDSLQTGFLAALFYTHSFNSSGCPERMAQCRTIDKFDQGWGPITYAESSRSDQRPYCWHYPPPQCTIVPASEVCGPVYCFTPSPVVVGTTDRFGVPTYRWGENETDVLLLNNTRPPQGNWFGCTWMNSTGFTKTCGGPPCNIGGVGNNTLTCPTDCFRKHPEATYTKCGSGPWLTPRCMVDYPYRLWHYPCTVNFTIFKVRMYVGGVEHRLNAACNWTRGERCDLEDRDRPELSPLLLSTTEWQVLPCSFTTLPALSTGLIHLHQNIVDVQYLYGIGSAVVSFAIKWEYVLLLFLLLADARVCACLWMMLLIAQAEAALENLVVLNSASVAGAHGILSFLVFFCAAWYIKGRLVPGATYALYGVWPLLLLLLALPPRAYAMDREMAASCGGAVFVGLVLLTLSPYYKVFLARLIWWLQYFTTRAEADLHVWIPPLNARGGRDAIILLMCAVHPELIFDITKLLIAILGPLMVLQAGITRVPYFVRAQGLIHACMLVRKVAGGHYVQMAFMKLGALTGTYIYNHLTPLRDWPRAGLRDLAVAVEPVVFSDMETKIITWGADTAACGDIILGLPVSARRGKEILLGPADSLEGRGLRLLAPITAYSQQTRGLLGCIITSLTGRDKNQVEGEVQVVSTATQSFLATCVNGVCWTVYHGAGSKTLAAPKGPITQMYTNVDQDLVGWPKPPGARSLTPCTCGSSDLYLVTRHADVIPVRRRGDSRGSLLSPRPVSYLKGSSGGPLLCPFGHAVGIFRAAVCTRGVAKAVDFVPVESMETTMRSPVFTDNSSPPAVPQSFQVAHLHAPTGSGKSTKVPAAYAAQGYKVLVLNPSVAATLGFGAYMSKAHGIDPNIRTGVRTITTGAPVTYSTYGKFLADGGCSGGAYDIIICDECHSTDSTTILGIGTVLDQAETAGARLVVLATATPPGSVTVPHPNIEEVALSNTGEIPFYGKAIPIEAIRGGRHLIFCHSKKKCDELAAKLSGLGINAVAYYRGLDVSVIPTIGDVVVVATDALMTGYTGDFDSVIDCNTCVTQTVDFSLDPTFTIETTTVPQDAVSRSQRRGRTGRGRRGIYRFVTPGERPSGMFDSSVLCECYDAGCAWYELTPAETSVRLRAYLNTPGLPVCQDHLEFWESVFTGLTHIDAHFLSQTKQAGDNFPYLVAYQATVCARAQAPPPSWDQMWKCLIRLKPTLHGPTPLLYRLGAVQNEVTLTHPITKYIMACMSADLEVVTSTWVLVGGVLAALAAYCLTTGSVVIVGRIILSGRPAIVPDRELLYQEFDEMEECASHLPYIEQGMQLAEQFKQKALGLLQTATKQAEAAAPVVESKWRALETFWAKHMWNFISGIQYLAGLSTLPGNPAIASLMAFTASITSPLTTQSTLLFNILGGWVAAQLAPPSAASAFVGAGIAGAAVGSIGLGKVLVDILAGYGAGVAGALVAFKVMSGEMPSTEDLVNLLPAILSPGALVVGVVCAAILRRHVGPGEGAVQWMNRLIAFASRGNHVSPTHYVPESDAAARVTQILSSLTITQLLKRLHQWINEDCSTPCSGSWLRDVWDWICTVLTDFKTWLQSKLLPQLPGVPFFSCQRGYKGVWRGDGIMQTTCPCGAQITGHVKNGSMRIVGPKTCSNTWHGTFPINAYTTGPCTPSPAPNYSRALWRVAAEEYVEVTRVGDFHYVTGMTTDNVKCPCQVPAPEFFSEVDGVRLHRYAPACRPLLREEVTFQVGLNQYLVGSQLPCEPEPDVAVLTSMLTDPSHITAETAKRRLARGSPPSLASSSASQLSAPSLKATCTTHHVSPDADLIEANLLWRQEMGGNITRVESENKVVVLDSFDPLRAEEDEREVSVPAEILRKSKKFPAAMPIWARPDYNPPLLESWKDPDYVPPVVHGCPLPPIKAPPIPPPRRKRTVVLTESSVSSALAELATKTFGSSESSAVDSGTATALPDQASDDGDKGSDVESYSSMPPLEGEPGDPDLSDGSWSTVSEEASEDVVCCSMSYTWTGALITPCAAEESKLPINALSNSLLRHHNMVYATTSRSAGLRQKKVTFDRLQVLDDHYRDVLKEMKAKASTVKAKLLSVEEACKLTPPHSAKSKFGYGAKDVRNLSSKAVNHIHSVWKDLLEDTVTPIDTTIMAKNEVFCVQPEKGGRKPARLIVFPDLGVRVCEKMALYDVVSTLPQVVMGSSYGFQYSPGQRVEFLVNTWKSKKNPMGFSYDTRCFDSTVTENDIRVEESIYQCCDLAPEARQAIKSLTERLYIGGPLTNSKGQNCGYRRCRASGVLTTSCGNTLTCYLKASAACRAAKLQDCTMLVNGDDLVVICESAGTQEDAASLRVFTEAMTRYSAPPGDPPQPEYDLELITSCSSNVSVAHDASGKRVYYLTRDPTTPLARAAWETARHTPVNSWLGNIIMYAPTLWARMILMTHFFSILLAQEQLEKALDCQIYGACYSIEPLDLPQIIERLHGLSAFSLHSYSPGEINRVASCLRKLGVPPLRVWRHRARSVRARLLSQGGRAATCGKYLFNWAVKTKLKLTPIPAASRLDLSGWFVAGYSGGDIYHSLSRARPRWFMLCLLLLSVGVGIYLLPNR

SMILES: N[C@@H](Cc1ccccc1)C(=O)Nc1ccc(CN(C(=O)c2ccco2)C2CCCCC2)cc1 [Compound 10, (S)-FURAN-2-CARBOXYLIC ACID [4-(2-AMINO-3-PHENYL-PROPIONYLAMINO) -BENZYL]-CYCLOHEXYL-AMIDE]
- IC50: > 50 µM

SMILES: COC(=O)[C@H](Cc1c[nH]c2ccccc12)NC(=O)C(CCCCN)NC(=O)OCC1c2ccccc2-c2ccccc21 (stereo partly drawn) [Compound 58, (S)-2-[6-AMINO-2-((9H-FLUOREN-9-YLMETHOXYCARBONYL)AMINO)-HEXANOYL-(R)-AMINO]-3-(1H-INDOL-3-YL)-PROPIONIC ACID METHYL ESTER]
- IC50: > 50 µM

SMILES: Cc1ccc(NC(=O)C(CCCCN)NC(=O)CNCc2cccc(C(F)(F)F)c2)cc1 [Compound 351, (S)-6-AMINO-2-[2-(3-TRIFLUOROMETHYL-BENZYLAMINO)-ACETYLAMINO]-HEXANOIC ACID P-TOLYLAMIDE]
- IC50: > 50 µM

SMILES: CNC(Cc1c[nH]c2ccccc12)C(=O)NC(CCCCN)C(=O)Nc1ccc(C)cc1 [Compound 90, (S)-6-AMINO-2-[3-(1H-INDOL-3-YL)-2-(S)-METHYLAMINO-PROPIONYLAMINO]-HEXANOIC ACID P-TOLYLAMIDE]
- IC50: > 50 µM

SMILES: Cc1ccc(NC(=O)C(CCCN)NC(=O)Nc2ccc(-c3ccccc3)cc2)cc1 [Compound 191, (R)-5-AMINO-2-(3-BIPHENYL-4-YL-UREIDO)-PENTANOIC ACID P-TOLYLAMIDE]
- IC50: > 50 µM

SMILES: Cc1ccc(NC(=O)C(CCCCN)NC(=O)Nc2ccc(-c3ccccc3)cc2)cc1 [Compound 171, (R)-6-AMINO-2-(3-BIPHENYL-4-YL-UREIDO)-HEXANOIC ACID P-TOLYLAMIDE]
- IC50: 10 to 50 µM

SMILES: Cc1ccc(NC(=O)C(Cc2ccc(CN)cc2)NC(=O)OCC2c3ccccc3-c3ccccc32)cc1 [Compound 129, (S)-[2-(4-AMINOMETHYL-PHENYL)-1-P-TOLYLCARBAMOYL-ETHYL]-CARBAMIC ACID 9H-FLUOREN-9-YLMETHYL ESTER]
- IC50: < 10 µM

SMILES: CC(=O)NCCCCC(NC(=O)OCC1c2ccccc2-c2ccccc21)C(=O)Nc1ccc(C)cc1 [Compound 181, (S)-(5-ACETYLAMINO-1-P-TOLYLCARBAMOYL-PENTYL)-CARBAMIC ACID 9H-FLUOREN-9-YLMETHYL ESTER]
- IC50: > 50 µM

SMILES: Cc1ccc(NC(=O)C(CCCCN)NC(=O)COc2cccc(C(F)(F)F)c2)cc1 [Compound 332, (S)-6-AMINO-2-[2-(3-TRIFLUOROMETHYL-PHENOXY)-ACETYLAMINO]-HEXANOIC ACID P-TOLYLAMIDE]
- IC50: > 50 µM

SMILES: Cc1ccc(NC(=O)C(CCCCN)NC(=O)c2ccc(C)c3ccccc23)cc1 [Compound 62, (S)-4-METHYL-NAPHTHALENE-1-CARBOXYLIC ACID (5-AMINO-1-P-TOLYLCARBAMOYL-PENTYL)-AMIDE]
- IC50: > 50 µM

SMILES: Cc1ccc(NC(=O)[C@H](CCCCN)NC(=O)CNCc2cccc(Cl)c2)cc1 [Compound 348, (S)-6-AMINO-2-[2-(3-CHLORO-BENZYLAMINO)-ACETYLAMINO]-HEXANOIC ACID P-TOLYLAMIDE]
- IC50: > 50 µM

SMILES: NCCCC[C@H](NC(=O)Nc1ccc(OCc2ccccc2)cc1)C(=O)NCC1CCCCC1 [Compound 265, (s)-6-AMINO-2-[3-(4-BENZYLOXY-PHENYL)-UREIDO]-HEXANOIC ACID CYCLOHEXYLMETHYL-AMIDE]
- IC50: 10 to 50 µM

SMILES: Cc1ccc(NC(=O)C(CN)NC(=O)OCC2c3ccccc3-c3ccccc32)cc1 [Compound 401, (R)-(2-AMINO-1-P-TOLYLCARBAMOYL-ETHYL)-CARBAMIC ACID 9H-FLUOREN-9-YLMETHYL ESTER]
- IC50: > 50 µM

SMILES: Cc1ccc(NC(=O)C(CCNC(=O)CN)NC(=O)OCC2c3ccccc3-c3ccccc32)cc1 [Compound 221, (S)-[3-(2-AMINO-ACETYLAMINO)-1-P-TOLYLCARBAMOYL-PROPYL]-CARBAMIC ACID 9H-FLUOREN-9-YLMETHYL ESTER]
- IC50: > 50 µM

SMILES: NCc1ccc(CNC(=O)[C@@H](NC(=O)OCC2c3ccccc3-c3ccccc32)c2ccccc2)cc1 [Compound 314, (S)-[(4-AMINOMETHYL-BENZYLCARBAMOYL)-PHENYL-METHYL]-CARBAMIC ACID 9H-FLUOREN-9-YLMETHYL ESTER]
- IC50: 10 to 50 µM
